The text below walks through data of patent publication US20090042849A1, “Phosphorylation of 5-lipoxygenase at ser523 and uses thereof” (priority 2006, published 2009).

SMILES strings stand for the structures. Entries after “also recorded” stand apart in the source; their conditions may differ.

Assay [1] relates to neonatal rat cardiomyocytes. The settings on record: neonatal rat cardiomyocytes cultures; cited from earlier work.
A further assay relates to 5LO mRNA. As to the kind of experiment: rtPCR of 5LO mRNA in adult rat cardiomyocytes. The format is cell-based. As to the method:
Cardiac myocytes were isolated from adult Sprague-Dawley rats (250-300 g, male). Animals were heparinized (1,000-2,000 units i.p.) 5 min before being anesthetized with ketamine (100 mg/kg) and xylazine (10 mg/kg), and the hearts were removed and placed in ice-cold heart media solution (in mmol/l: 112 NaCl, 5.4 KCl, 1 MgCl2, 9 NaH2PO4, and 11.1 D-glucose; supplemented with 10 HEPES, 30 taurine, 2 DL-carnitine, and 2 creatine, pH. 7.4). The hearts were perfused retrogradely in a Langendorff apparatus with Ca^2+-free heart media for 5 min at 5 ml/min at 37° C., followed by perfusion with Ca^2+-free heart media containing collagenase II, 210 U/mg (Worthington, Lakewood, N.J.) for 20 min. After perfusion, both ventricles were removed from the heart and minced in collagenase II-containing heart media for 10-15 min. The cell solution was then washed several times to remove collagenase II and reexposed to 1.2 mM Ca2^+ over 25 min to produce Ca2^+-tolerant cardiac myocytes. Myocytes were then plated in 4% FBS on laminin (2 μg/cm^2)-coated plates for 1 h and incubated at 37° C. in 5% CO2 for 12-24 h before experiments (21). Cells were incubated with 1) vehicle (0.07% ethanol); 2) PIO (10 μM)+ATV (10 μM); 3) H-89 (0.1 μM); or 4) PIO+ATV+H-89 for 12 hours. The supernatants were collected directly for LTB4 analyses by ELISA and the cells were harvested for immunoblotting. In addition, cells were plated in 8-chamber slides, received the same treatment as above and were used for immunohistochemical staining.
Equal amounts of total cellular RNA were reverse-transcribed with oligo(dT) primer by use of AMV Reverse Transcriptase (Applied Biosystems). Transcribed cDNAs (40 ng) were used for Real Time PCR with specific primers: rat ALOX5. […] The Ct (threshold cycle) is defined as the number of cycles required for the fluorescence signal to exceed the detection threshold. Expression of the ALOX5 relative to the GAPDH was calculated as the different between the threshold values of these two genes. […]

Assay [2] has as its system 5LO interaction with COX2 / cPLA2. As to the kind of experiment: co-immunoprecipitation of 5LO with COX2 and cPLA2 in rat hearts. Format: in vivo. As for the experimental part:
(§1) Rats received: 1) PIO (10 mg/kg/d); 2) ATV (10 mg/kg/d); 3) PIO (10 mg/kg/d)+H89 (20 mg/kg); 4) ATV (10 mg/kg/d)+H89 (20 mg/kg); 5) H89 (20 mg/kg) or 6) water alone (control). PIO and ATV were suspended in water and administered by gastric gavage once daily for 3 days; H-89 was dissolved in DMSO (final concentration 5% v/v) and injected intraperitoneally on the third day. Rats in groups 5 and 6 received water by gastric gavage once daily for 3 days. Rats in groups 1, 2 and 6 received intraperitoneal inkection of DMSO 5%. Sixteen hours after the injection, rats were euthanized and the hearts explanted for further analyses. In another experiment, rats received 3-day pretreatment with: 1) water (sham); 2) PIO (10 mg/kg/d); 3) ATV (10 mg/kg/d); 4) PIO (10 mg/kg/d)+ATV (10 mg/kg/d); or 5) LPS (10 mg/kg).
For co-immunoprecipitation, myocardial cytosolic, membranous and nuclear fractions (500 μg) were incubated with anti-5LO antibodies for 4 h followed by overnight incubation at 4° C. with Protein-A-Agarose. The agarose beads were collected by centrifugation and SDS/PAGE Western immunoblotting was performed with the supernatant fraction. The anti-5LO precipitates were subjected to immunoblotting with anti-COX2 or anti-cPLA2 antibodies.

For a further assay, the system named is 5LO. As to the kind of experiment: immunoblotting of 5LO in cytosolic, membranous and nuclear fractions of myocardial cells. Format: in vivo. The settings on record: rat myocardium. As for the experimental part:
Rats received: 1) […] (20 mg/kg) or 6) water alone (control). PIO and ATV were suspended in water and administered by gastric gavage once daily for 3 days; H-89 was dissolved in DMSO (final concentration 5% v/v) and injected intraperitoneally on the third day. Rats in groups 5 and 6 received water by gastric gavage once daily for 3 days. Rats in groups 1, 2 and 6 received intraperitoneal inkection of DMSO 5%. Sixteen hours after the injection, rats were euthanized and the hearts explanted for further analyses. In another experiment, rats received 3-day pretreatment with: 1) […]); or 5) LPS (10 mg/kg). Myocardial samples (0.25 g) were homogenized, mixed with Buffer A Mix [Hepes (pH 7.9) 10 mM, KCl 10 mM, EDTA 10 mM, DTT 100 mM, protease inhibitor cocktail, and IGEPAL 10%, (Sigma, St Lois, Mo.)], homogenized again and incubated for 15 min on ice, and centrifuged at 850×g for 10 min at 4° C. The supernatant was discharged, Buffer A Mix was added again and the samples incubated for an additional 15 min on ice, and centrifuged at 15,000×g for 3 min at 40 C. The supernatant contains the cytosolic fraction was collected. The pellet was resuspended in 150 μl of Buffer B Mix [Hepes (pH 7.9) 20 mM, NaCl 0.4M, EDTA 1 mM, glycerol 10%, protease inhibitor cocktail, and IGEPAL 10%], the tubes were shaked on ice at 200 rpm for 2 h, centrifuged at 15,000×g for 5 min at 4° C., and supernatants were collected as the nuclear fraction. […] The hearts were rapidly explanted, rinsed in cold PBS (pH 7.4), containing 0.16 mg/ml heparin to remove red blood cells and clots, frozen in liquid nitrogen and stored at -70° C. Myocardial samples from the anterior left ventricular wall were homogenized in RIPA lysis buffer (Santa Cruz Biotechnology, Santa Cruz, Calif.) and centrifuged at 14,000 rpm for 15 min at 4° C. The supernatant was collected and the total protein concentration was determined using the Lowry protein assay. […] The protein samples with loading buffer were run in 4-20% Tri-HCl Ready Gel at a 100V for 2 h until the desired molecular weight bands were separated. After electrophoresis, the gel was equilibrated in transfer buffer (25 mM Tris, 193 mM glycine, 0.1% SDS and 10% methanol) and the proteins were transferred to nitrocellulose membrane. The protein signals were quantified by an image-scanning-densitometer and the strength of each protein signal was normalized to the corresponding b-actin stain signal. Data are expressed as a ratio between the protein and the corresponding b-actin signal density.

In assay [3] the test system is 5LO (Ser523 phosphorylated 5LO). As to the kind of experiment: immunoblotting of total 5LO and P-5LO in rat myocardium (whole cell homogenate). Format: in vivo. As to the method:
as §1
PIO and ATV were administered by oral gavage once daily as above; LPS was administered intravenously. In addition, rats in groups 1-4 received intravenous saline on the […], whereas rats in group 1 and 5 received water by gastric gavage once daily for 3 days and the LPS injection on the third day. Sixteen hours after the injection, rats were euthanized and the hearts explanted for further analyses.
The hearts were rapidly explanted, rinsed in cold PBS (pH 7.4), containing 0.16 mg/ml heparin to remove red blood cells and clots, frozen in liquid nitrogen and stored at −70° C. Myocardial samples from the anterior left ventricular wall were homogenized in RIPA lysis buffer (Santa Cruz Biotechnology, Santa Cruz, Calif.) and centrifuged at 14,000 rpm for 15 min at 4° C. The supernatant was collected and the total protein concentration was determined using the Lowry protein assay. […] The protein samples with loading buffer were run in 4-20% Tri-HCl Ready Gel at a 100V for 2 h until the desired molecular weight bands were separated. After electrophoresis, the gel was equilibrated in transfer buffer (25 mM Tris, 193 mM glycine, 0.1% SDS and 10% methanol) and the proteins were transferred to nitrocellulose membrane. The protein signals were quantified by an image-scanning-densitometer and the strength of each protein signal was normalized to the corresponding b-actin stain signal. Data are expressed as a ratio between the protein and the corresponding b-actin signal density.
(In western blotting, separated proteins are transferred to a membrane and probed.)

The test system of another assay is rat infarct model. As to the kind of experiment: rat infarct model, infarct size. Format: in vivo. The settings on record: ATV 2 mg/kg/d, cilostazol 20 mg/kg/d, alone or combined. As to the method:
The effects of cilostazol (Pletal) and atorvastatin on myocardial protection was measured in a rat infarct model. Pletal is a phosphodiesterase III inhibitor, thus increasing intracellular cAMP levels. cAMP activates PKA. ATV at 2 mg/kg/d had no effect. Cilostazol 20 mg/kg/d reduced infarct size. However, when combined with ATV 2 mg/kg/d the effect was much greater. There are 8 rats in the control and ATV 2 mg/kg/d groups and 6 rats in the cilostazol and the combination groups. Infarct size in the ATV 2 mg/kg/d (30.48±1.46%) is not different from the controls (33.97±2.76%).

Setting [4] is: whole cell homogenate, PIO or ATV 10 mg/kg/d 3 days, H-89 20 mg/kg i.p.

For the compound `CC(C)c1ccc2c(c1)c(SC(C)(C)C)c(CC(C)(C)C(=O)O)n2Cc1ccc(Cl)cc1` [MK886], in assay [1], the “calcium ionophore (A23187) induction of reactive oxygen species” value was “prevented”.

`CCc1ccc(CCOc2ccc(CC3SC(=O)NC3=O)cc2)nc1` (centres unmarked) [PIO, 5-[[4-[2-(5-ethylpyridin-2 yl)ethoxy]phenyl]methyl]thiazolidine-2,4-dione]: in the assay on 5LO mRNA, the “5LO mRNA levels in the cardiomyocytes” value is “did not affect”. In assay [2] (cytosolic and membranous fractions), the “fraction in which the co-immunoprecipitation with 5LO occurred” value is reported as “in the cytosolic, but not the membranous fraction; also recorded: only in the cytosolic fraction”. Moreover, the “co-immunoprecipitation of COX2 or cPLA2 with 5LO” value in assay [2] (whole cell lysate) is 5LO precipitated with COX2 and COX2, but not cPLA2, precipitated with 5LO. In the assay with 5LO, the “5LO levels in the cytosolic fraction” value is reported as “small, yet significant increase” and the “5LO levels in the membranous fraction” value was “no detectable effect”. Also, the “5LO phosphorylation, PIO and ATV compared with LPS” value in assay [3] (PIO, ATV 10 mg/kg/d, LPS 10 mg/kg i.v.) is “significantly greater increase”. In assay [3] (setting [4]), the “myocardial levels of Ser523 phosphorylated 5LO (P-5LO)” value is “augment; also recorded: increased” and the “myocardial total 5LO levels” value is listed as “without detectable change; also recorded: did not affect”.

As to `O=C1CCc2cc(OCCCCc3nnnn3C3CCCCC3)ccc2N1` [cilostazol], in the assay on rat infarct model, the Infarct size is recorded as 15.47±1.61% and the “effect on infarct size (in words)” value is “reduced”.
